In patent US12459967B2, “Modulators of 5′-nucleotidase, ecto and the use thereof” (Arcus Biosciences, Inc., priority 2016, dated 2025):

biological target: T1, human CD73 (Homo sapiens, UniProt P21589); assay: Inhibition of ecto-5′-nucleotidase (CD73) activity in CHO-CD73 cells, phosphate colorimetric readout; format: cell-based; conditions: CHO-K1 cells stably transfected with human CD73, 2500 cells per well, 25 μM AMP substrate, 50 minutes incubation at 37° C.; read-out: Potency: CD73 IC50
T1 construct: host or cells: CHO-K1 (suspension pool CHO-CD73)
T1 sequence (P21589 27-549): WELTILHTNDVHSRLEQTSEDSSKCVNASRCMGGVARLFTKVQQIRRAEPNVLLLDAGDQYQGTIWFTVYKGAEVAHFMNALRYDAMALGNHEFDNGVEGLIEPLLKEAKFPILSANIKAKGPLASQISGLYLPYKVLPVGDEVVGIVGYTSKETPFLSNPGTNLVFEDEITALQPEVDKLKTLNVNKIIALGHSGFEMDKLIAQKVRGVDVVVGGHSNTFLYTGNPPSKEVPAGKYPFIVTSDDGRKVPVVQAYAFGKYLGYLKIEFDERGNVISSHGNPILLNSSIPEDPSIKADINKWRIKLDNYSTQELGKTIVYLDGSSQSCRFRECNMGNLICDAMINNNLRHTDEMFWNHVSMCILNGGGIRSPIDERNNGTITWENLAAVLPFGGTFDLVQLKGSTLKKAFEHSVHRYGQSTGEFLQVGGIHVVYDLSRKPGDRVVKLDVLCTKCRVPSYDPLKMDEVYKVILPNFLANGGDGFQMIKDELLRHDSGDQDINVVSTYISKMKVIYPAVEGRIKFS
Procedure: Inhibition of Ecto-5′-nucleotidase Activity. Compounds were evaluated to determine their ecto-5′-nucleotidase (CD73) inhibitory activity. Briefly, CHO-K1 cells stably transfected with human CD73 were generated by LakePharma (Belmont, CA) using molecular cloning of human CD73 (http://www.uniprot.org/uniprot/P21589) and mammalian transient expression vector (P21589.1). After antibiotic selection in CD OptiCHO cell media (Invitrogen, Catalog #12681-011) containing 5 μg/mL Puromycin and 200 μg/mL Hygromycin B, a suspension pool of CHO-CD73 cells was collected and frozen in 7.5% DMSO in cell media without antibiotics.
On the day of the experiment, one vial of CHO-CD73 cells was thawed and suspended in assay media which consisted of 20 mM HEPES, pH 7.4, 137 mM NaCl, 5.4 mM KCl, 1.3 mM CaCl2), 4.2 mM NaHCO3 and 0.1% glucose. To test the ability of compounds to inhibit CD73 enzymatic activity, 2 μL of 500 μM of compounds dissolved in DMSO (50×) were added to a 96-well polystyrene plate containing 58 μL of assay buffer. Next, 20 μL of CHO-CD73 cells in assay buffer were added to assay plate followed by 20 μL of 125 μM AMP (Adenosine 5′-monophosphate monohydrate) in assay buffer. Final assay conditions consisted of 2500 cells per well in 2% DMSO and 25 μM of AMP substrate. After 50 minutes of incubation (37° C. and 5% CO2) and centrifugation at 225×g for 5 mins, 80 μL of supernatant were transferred to a 96-well Spectra Plate (PerkinElmer, cat #6005640) which was pre-dispensed with 20 μL of PiColorLock Gold colorimetric assay reagents (Thermo, cat #30 300 30). The amount of inorganic phosphate was determined by reading the absorbance at 620 nm on an EnVision Multilabel Plate Reader (PerkinElmer). Enzymatic activity of CD73 was based on the amount of phosphate generated. Percentage of activity was calculated based on DMSO and no cells control wells. IC50 values of compounds were determined by four parameter non-linear regression fitting of percentage of activity in GraphPad Prism software.

Structure (SMILES)	IC50 [µM]
C[C@H](Nc1nc(Cl)nc2c1ccn2[C@@H]1O[C@H](COP(=O)(O)CP(=O)(O)O)[C@@H](O)[C@H]1O)c1ccc(F)cc1	< 0.1
C[C@H](Nc1cc(Cl)nc2c1cnn2[C@@H]1O[C@H](COP(=O)(O)CP(=O)(O)O)[C@@H](O)[C@H]1O)c1ccc(F)cc1	< 0.1
O=P(O)(O)CP(=O)(O)OC[C@H]1O[C@@H](n2cnc3c(N[C@@H]4CCOC4)nc(Cl)nc32)[C@@H](F)[C@@H]1O	< 0.1
O=P(O)(O)CP(=O)(O)OC[C@H]1O[C@@H](n2cnc3c(NCc4ccc(C(F)(F)F)cc4)ncnc32)[C@H](O)[C@@H]1O	< 0.1
CC(C)Nc1nc(Cl)nc2c1ncn2[C@@H]1O[C@H](COP(=O)(O)CP(=O)(O)O)[C@@H](O)[C@@H]1F	< 0.1
COP(=O)(O)CP(=O)(O)OC[C@H]1O[C@@H](n2cnc3c(N(C)C4CCCC4)nc(Cl)nc32)[C@@H](F)[C@@H]1O	0.1 to 1
O=P(O)(O)CP(=O)(O)OC[C@H]1O[C@@H](n2cnc3c(NCc4ccccc4)nc(C(F)(F)F)nc32)[C@@H](F)[C@@H]1O	< 0.1
C[C@@H](Nc1cc(Cl)nc2c1cnn2[C@@H]1O[C@H](COP(=O)(O)CP(=O)(O)O)[C@@H](O)[C@H]1O)c1ccccc1	< 0.1
O=P(O)(O)CP(=O)(O)OC[C@H]1O[C@@H](n2cnc3c(NC4CCCC4)nc(Cl)cc32)[C@@H](F)[C@@H]1O	< 0.1
COC(=O)c1ccccc1OP(=O)(CP(=O)(Oc1ccccc1C(=O)OC)Oc1ccccc1C(=O)OC)OC[C@H]1O[C@@H](n2cnc3c(N(C)C4CCCC4)nc(Cl)nc32)[C@H](O)[C@@H]1O (stereo partly drawn)	> 1
O=P(O)(O)CP(=O)(O)OC[C@H]1O[C@@H](n2cnc3c(NCc4ccccc4)nc(C#Cc4ccccc4)nc32)[C@@H](F)[C@@H]1O	< 0.1
CC(C)OC(=O)OCOP(=O)(O)CP(=O)(OCOC(=O)OC(C)C)OC[C@H]1O[C@@H](n2ncc3c(N[C@@H](C)c4ccccc4)nc(Cl)nc32)[C@H](O)[C@@H]1O (stereo partly drawn)	> 1
Cc1cccc(CNc2nc(Cl)nc3c2ncn3[C@@H]2O[C@H](COP(=O)(O)CP(=O)(O)O)[C@@H](O)[C@@H]2F)c1	< 0.1
CC(OP(=O)(O)CP(=O)(O)O)[C@H]1O[C@@H](n2cnc3c(NCc4ccccc4)nc(Cl)nc32)[C@H](O)[C@@H]1O (stereo partly drawn)	< 0.1
O=P(O)(O)CP(=O)(O)OC[C@H]1O[C@@H](n2cnc3c(NC4CCCC4)nc(Cl)nc32)[C@@H](F)[C@@H]1O	< 0.1
Cc1ccc(CNc2ncnc3c2ncn3[C@@H]2O[C@H](COP(=O)(O)CP(=O)(O)O)[C@@H](O)[C@H]2O)cc1	< 0.1
C[C@@H](Nc1nc(Cl)nc2c1cnn2[C@@H]1O[C@H](COP(=O)(O)CP(=O)(O)O)[C@@H](O)[C@H]1O)c1ccccc1	< 0.1
O=P(O)(O)CP(=O)(O)OC[C@H]1O[C@@H](n2ncc3c(NC4CCCC4)cc(Cl)nc32)[C@H](O)[C@@H]1O	< 0.1
C[C@@H](Nc1nc(Cl)nc2c1cnn2[C@@H]1O[C@H](COP(=O)(O)CP(=O)(O)O)[C@@H](O)[C@H]1O)c1ccc(F)cc1	< 0.1
O=P(O)(O)CP(=O)(O)OC[C@H]1O[C@@H](n2cnc3c(NCc4ccccc4)nc(Cc4ccccc4)nc32)[C@@H](F)[C@@H]1O	< 0.1
CCCc1nc(NCc2ccccc2)c2ncn([C@@H]3O[C@H](COP(=O)(O)CP(=O)(O)O)[C@@H](O)[C@H]3O)c2n1	< 0.1
C[C@@H](Nc1nc(Cl)nc2c1cnn2[C@@H]1O[C@H](COP(=O)(O)CP(=O)(O)O)[C@@H](O)[C@@H]1F)c1ccccc1	< 0.1
CN(c1nc(Cl)nc2c1ncn2[C@@H]1O[C@H](COP(=O)(CP(=O)(Oc2ccccc2)Oc2ccccc2)Oc2ccccc2)[C@@H](O)[C@H]1O)C1CCCC1 (stereo partly drawn)	> 1
CCc1nc(NCc2ccccc2)c2ncn([C@@H]3O[C@H](COP(=O)(O)CP(=O)(O)O)[C@@H](O)[C@H]3O)c2n1	< 0.1
Nc1nc(F)nc2c1ncn2[C@@H]1O[C@H](COP(=O)(O)CP(=O)(O)O)[C@@H](O)[C@H]1O	< 0.1
C[C@H](Nc1nc(Cl)nc2c1ccn2[C@@H]1O[C@H](COP(=O)(O)CP(=O)(O)O)[C@@H](O)[C@@H]1F)c1ccc(F)cc1	< 0.1
O=P(O)(O)CP(=O)(O)OC[C@H]1O[C@@H](n2cnc3c(N[C@H]4CCOC4)nc(Cl)nc32)[C@@H](F)[C@@H]1O	< 0.1
O=P(O)(O)CP(=O)(O)OC[C@H]1O[C@@H](n2cnc3c(NCc4cc(Cl)cc(Cl)c4)ncnc32)[C@H](O)[C@@H]1O	< 0.1

The remaining lines, values ahead:

IC50 [µM]	Structure (SMILES)
> 1	CC(C)OC(=O)OCOP(=O)(O)CP(=O)(OCOC(=O)OC(C)C)OC[C@H]1O[C@@H](n2ncc3c(NC4CCCC4)nc(Cl)nc32)[C@H](O)[C@@H]1O (stereo partly drawn)
0.1 to 1	O=P(O)(O)CP(=O)(O)OC[C@H]1O[C@@H](n2cnc3c(NC4CCCC4)nc(C(O)C4CCOCC4)nc32)[C@@H](F)[C@@H]1O (stereo partly drawn)
< 0.1	C[C@H](Nc1nc(Cl)nc2c1cnn2[C@@H]1O[C@H](COP(=O)(O)CP(=O)(O)O)[C@@H](O)[C@@H]1F)c1ccccc1F
< 0.1	O=P(O)(O)CP(=O)(O)OC[C@H]1O[C@@H](n2cnc3c(NCc4ccccc4)nc(N4CCCCC4)nc32)[C@H](O)[C@@H]1O
< 0.1	C[C@H](Nc1nc(Cl)nc2c1ccn2[C@@H]1O[C@H](COP(=O)(O)CP(=O)(O)O)[C@@H](O)[C@H]1O)c1ccccc1F
< 0.1	O=P(O)(O)CP(=O)(O)OC[C@H]1O[C@@H](n2cnc3c(N4Cc5ccccc5C4)nc(Cl)nc32)[C@@H](F)[C@@H]1O
< 0.1	O=P(O)(O)CP(=O)(O)OC[C@H]1O[C@@H](n2cnc3c(NCC4CC4)nc(Cl)nc32)[C@@H](F)[C@@H]1O
< 0.1	C[C@@H](Nc1nc(Cl)nc2c1ccn2[C@@H]1O[C@H](COP(=O)(O)CP(=O)(O)O)[C@@H](O)[C@@H]1F)c1ccccc1
< 0.1	CN(Cc1ccccc1Cl)c1nc(Cl)nc2c1cnn2[C@@H]1O[C@H](COP(=O)(O)CP(=O)(O)O)[C@@H](O)[C@H]1O
< 0.1	CC(C)Sc1nc(NCc2ccccc2)c2ncn([C@@H]3O[C@H](COP(=O)(O)CP(=O)(O)O)[C@@H](O)[C@H]3O)c2n1
< 0.1	O=P(O)(O)CP(=O)(O)OC[C@H]1O[C@@H](n2cnc3c(NC4CCCC4)cc(Cl)nc32)[C@H](O)[C@@H]1O
< 0.1	O=P(O)(O)CP(=O)(O)OC[C@H]1O[C@@H](n2ncc3c(N[C@H]4CCOC4)nc(Cl)nc32)[C@H](O)[C@@H]1O
< 0.1	C[C@H](Nc1nc(Cl)nc2c1cnn2[C@@H]1O[C@H](COP(=O)(O)CP(=O)(O)O)[C@@H](O)[C@H]1O)c1cccc(F)c1
< 0.1	O=P(O)(O)CP(=O)(O)OC[C@H]1O[C@@H](n2cnc3c(NCc4ccccc4)nc(N4CCCC4)nc32)[C@H](O)[C@@H]1O
